Measured values published in ChEMBL document CHEMBL3046894, “Synthesis and Herbicidal Activity of Pyrimidinyl Salicylic and Thiosalicylic Acids” (J Pestic Sci, 1996).
Active and inactive are the calls of the source. The calls are words filed in the database; no cut-off is given here.

How the values were obtained:
[1] = system: Glycine max; experiment: Post-emergence phytotoxicity against Glycine max (soybean) assessed as mortality at 1.6 g a.i/10 a applied 11 days after germination as foliar spray; format: organism-based; settings: in vivo, other, 264 h
[2] = (§1) Pre-emergence phytotoxicity against Gossypium hirsutum (cotton) assessed as mortality at 6.3 g a.i/10 a; format: organism-based; settings: in vivo, 6.3 g a.i/10 a
[3] = system: Zea mays; experiment: Pre-emergence phytotoxicity against Zea mays (maize) assessed as mortality at 6.3 g a.i/10 a; format: organism-based; settings: in vivo, other
[4] = system: Glycine max; experiment: (§2) Pre-emergence phytotoxicity against Glycine max (soybean) assessed as mortality at 1.6 g a.i/10 a; format: organism-based; settings: in vivo, other
[5] = system: Glycine max; experiment: Pre-emergence phytotoxicity against Glycine max (soybean) assessed as mortality at 6.3 g a.i/10 a; format: organism-based; settings: in vivo, other
[6] = system: Ipomoea lacunosa; experiment: Pre-emergence herbicidal activity against Ipomoea lacunosa assessed as mortality at 1.6 g a.i/10 a; format: functional
[7] = system: Abutilon theophrasti; experiment: Post-emergence herbicidal activity against Abutilon theophrasti (velvetleaf) assessed as mortality at 6.3 g a.i/10 a applied 11 days after germination as foliar spray; format: functional; settings: 264 h
[8] = system: Gossypium hirsutum; experiment: Pre-emergence phytotoxicity against Gossypium hirsutum (cotton) assessed as mortality at 1.6 g a.i/10 a; format: organism-based; settings: in vivo, other
[9] = system: Zea mays; experiment: (§3) Pre-emergence phytotoxicity against Zea mays (maize) assessed as mortality at 1.6 g a.i/10 a; format: organism-based; settings: in vivo, other
[10] = (§4) Post-emergence phytotoxicity against Zea mays (maize) assessed as mortality at 1.6 g a.i/10 a applied 11 days after germination as foliar spray; format: organism-based; settings: in vivo, 1.6 g a.i/10 a
[11] = (§5) Post-emergence phytotoxicity against Gossypium hirsutum (cotton) assessed as mortality at 1.6 g a.i/10 a applied 11 days after germination as foliar spray; format: organism-based; settings: in vivo, 1.6 g a.i/10 a
[12] = system: Xanthium strumarium; experiment: Pre-emergence herbicidal activity against Xanthium strumarium (cocklebur) assessed as mortality at 1.6 g a.i/10 a; format: functional
[13] = (§6) Post-emergence phytotoxicity against Gossypium hirsutum (cotton) assessed as mortality at 6.3 g a.i/10 a applied 11 days after germination as foliar spray; format: organism-based; settings: in vivo, 6.3 g a.i/10 a
[14] = system: Glycine max; experiment: Post-emergence phytotoxicity against Glycine max (soybean) assessed as mortality at 6.3 g a.i/10 a applied 11 days after germination as foliar spray; format: organism-based; settings: in vivo, other, 264 h
[15] = system: Ipomoea lacunosa; experiment: Post-emergence herbicidal activity against Ipomoea lacunosa assessed as mortality per 10 acre; format: functional
[16] = system: Echinochloa crus-galli; experiment: Post-emergence herbicidal activity against Echinochloa crus-galli (barnyard grass) assessed as mortality per 10 acre; format: functional
[17] = system: Amaranthus retroflexus; experiment: Pre-emergence herbicidal activity against Amaranthus retroflexus assessed as mortality per 10 acre; format: functional
[18] = system: Persicaria nodosa; experiment: Pre-emergence herbicidal activity against Persicaria nodosa assessed as mortality per 10 acre; format: functional
[19] = system: Amaranthus retroflexus; experiment: Post-emergence herbicidal activity against Amaranthus retroflexus assessed as mortality per 10 acre; format: functional
[20] = system: Gossypium hirsutum; experiment: Post-emergence phytotoxicity against Gossypium hirsutum (cotton) assessed as mortality per 10 acre; format: organism-based; settings: in vivo
[21] = system: Gossypium hirsutum; experiment: as §1; format: organism-based; settings: in vivo, other
[22] = system: Gossypium hirsutum; experiment: Pre-emergence phytotoxicity against Gossypium hirsutum (cotton) assessed as mortality per 10 acre; format: organism-based; settings: in vivo
[23] = system: Persicaria nodosa; experiment: Post-emergence herbicidal activity against Persicaria nodosa assessed as mortality per 10 acre; format: functional
[24] = system: Xanthium strumarium; experiment: Pre-emergence herbicidal activity against Xanthium strumarium (cocklebur) assessed as mortality per 10 acre; format: functional
[25] = system: Zea mays; experiment: as §4; format: organism-based; settings: in vivo, other, 264 h
[26] = system: Ipomoea lacunosa; experiment: Pre-emergence herbicidal activity against Ipomoea lacunosa assessed as mortality per 10 acre; format: functional
[27] = system: Echinochloa crus-galli; experiment: Pre-emergence herbicidal activity against Echinochloa crus-galli (barnyard grass) assessed as mortality per 10 acre; format: functional
[28] = system: Xanthium strumarium; experiment: Post-emergence herbicidal activity against Xanthium strumarium (cocklebur) assessed as mortality per 10 acre; format: functional
[29] = system: Xanthium strumarium; experiment: Post-emergence herbicidal activity against Xanthium strumarium (cocklebur) assessed as mortality at 1.6 g a.i/10 a applied 11 days after germination as foliar spray; format: functional; settings: 264 h
[30] = system: Echinochloa crus-galli; experiment: Pre-emergence herbicidal activity against Echinochloa crus-galli (barnyard grass) assessed as mortality at 1.6 g a.i/10 a; format: functional; settings: Echinochloa crus-galli, pre-emergence
[31] = system: Ipomoea lacunosa; experiment: Post-emergence herbicidal activity against Ipomoea lacunosa assessed as mortality at 1.6 g a.i/10 a applied 11 days after germination as foliar spray; format: functional; settings: 264 h
[32] = system: Cyperus iria; experiment: Post-emergence herbicidal activity against Cyperus iria assessed as growth inhibition at 25 g a.i/10 a applied 11 days after germination as foliar spray; format: functional, organism-based
[33] = system: Digitaria sanguinalis; experiment: Pre-emergence herbicidal activity against Digitaria sanguinalis (hairy crabgrass) assessed as growth inhibition at 25 g a.i/10 a; format: functional, organism-based
[34] = system: Cyperus iria; experiment: Pre-emergence herbicidal activity against Cyperus iria assessed as growth inhibition at 25 g a.i/10 a; format: functional, organism-based
[35] = system: Persicaria nodosa; experiment: Post-emergence herbicidal activity against Persicaria nodosa assessed as growth inhibition at 25 g a.i/10 a applied 11 days after germination as foliar spray; format: functional, organism-based
[36] = system: Echinochloa crus-galli; experiment: Post-emergence herbicidal activity against Echinochloa crus-galli (barnyard grass) assessed as growth inhibition at 25 g a.i/10 a applied 11 days after germination as foliar spray; format: functional, organism-based
[37] = system: Zea mays; experiment: Post-emergence phytotoxicity against Zea mays (maize) assessed as mortality at 6.3 g a.i/10 a applied 11 days after germination as foliar spray; format: organism-based; settings: in vivo, other, 264 h
[38] = system: Xanthium strumarium; experiment: Pre-emergence herbicidal activity against Xanthium strumarium (cocklebur) assessed as mortality at 6.3 g a.i/10 a; format: functional
[39] = system: Chenopodium album; experiment: Pre-emergence herbicidal activity against Chenopodium album assessed as growth inhibition at 25 g a.i/10 a; format: functional, organism-based
[40] = as §3; format: organism-based; settings: in vivo, 1.6 g a.i/10 a, read-out: mortality
[41] = system: Abutilon theophrasti; experiment: Pre-emergence herbicidal activity against Abutilon theophrasti (velvetleaf) assessed as mortality at 1.6 g a.i/10 a; format: functional; settings: Abutilon theophrasti, pre-emergence
[42] = system: Amaranthus retroflexus; experiment: Post-emergence herbicidal activity against Amaranthus retroflexus assessed as growth inhibition at 25 g a.i/10 a applied 11 days after germination as foliar spray; format: functional, organism-based
[43] = system: Gossypium hirsutum; experiment: as §5; format: organism-based; settings: in vivo, other, 264 h
[44] = system: Ipomoea lacunosa; experiment: Pre-emergence herbicidal activity against Ipomoea lacunosa assessed as mortality at 6.3 g a.i/10 a; format: functional
[45] = system: Echinochloa crus-galli; experiment: Pre-emergence herbicidal activity against Echinochloa crus-galli (barnyard grass) assessed as mortality at 6.3 g a.i/10 a; format: functional; settings: Echinochloa crus-galli, pre-emergence
[46] = system: Gossypium hirsutum; experiment: as §6; format: organism-based; settings: in vivo, other, 264 h
[47] = system: Chenopodium album; experiment: Post-emergence herbicidal activity against Chenopodium album assessed as growth inhibition at 25 g a.i/10 a applied 11 days after germination as foliar spray; format: functional, organism-based
[48] = system: Amaranthus retroflexus; experiment: Pre-emergence herbicidal activity against Amaranthus retroflexus assessed as growth inhibition at 25 g a.i/10 a; format: functional, organism-based
[49] = system: Echinochloa crus-galli; experiment: Pre-emergence herbicidal activity against Echinochloa crus-galli (barnyard grass) assessed as growth inhibition at 25 g a.i/10 a; format: functional, organism-based
[50] = system: Persicaria nodosa; experiment: Pre-emergence herbicidal activity against Persicaria nodosa assessed as growth inhibition at 25 g a.i/10 a; format: functional, organism-based
[51] = system: Digitaria sanguinalis; experiment: Post-emergence herbicidal activity against Digitaria sanguinalis (hairy crabgrass) assessed as growth inhibition at 25 g a.i/10 a applied 11 days after germination as foliar spray; format: functional, organism-based
[52] = system: Echinochloa crus-galli; experiment: Post-emergence herbicidal activity against Echinochloa crus-galli (barnyard grass) assessed as mortality at 1.6 g a.i/10 a applied 11 days after germination as foliar spray; format: functional; settings: 264 h
[53] = as §2; format: organism-based; settings: in vivo, 1.6 g a.i/10 a, read-out: Activity
[54] = system: Ipomoea lacunosa; experiment: Post-emergence herbicidal activity against Ipomoea lacunosa assessed as mortality at 6.3 g a.i/10 a applied 11 days after germination as foliar spray; format: functional; settings: 264 h
[55] = Xanthium strumarium, pre-emergence
[56] = Ipomoea lacunosa, pre-emergence

In the case of `COc1cc(OC)nc(Sc2cccc(I)c2C(=O)O)n1`, the Activity [1] was “Toxic”, the mortality ([2]; read-out: Activity) was less than 50% and the Activity [3] was greater than 90%. The Activity [4] was “Non-toxic”, the Activity [5] was “Toxic” and the Activity [6] was less than 50%. The mortality at 63 g/ha [7] was greater than 90%, the Activity [8] was less than 50% and the Activity [9] was “Toxic”. It also gave a mortality at 264 h [10] greater than 90%, a mortality at 264 h [11] of less than 5% and an Activity [12] of less than 50%. For the same molecule, the mortality at 264 h [13] was less than 5% and the Activity [14] was “Toxic”.

For `COc1cc(OC)nc(Sc2cccc(Br)c2C(=O)O)n1`, the ED90 [15] was “Active”, the ED90 [16] was 25 gAi and the ED90 [17] was 1.5 gAi. The ED90 [18] was “inactive”, the Activity [1] was “Toxic” and the ED90 [19] was 1.5 gAi. For the same molecule, the ED20 [20] was 50 gAi, the Activity [21] was “Non-toxic” and the Activity [3] was “Toxic”. The ED20 [22] was 50 gAi, the Activity [4] was “Toxic” and the ED90 [23] was 1.5 gAi. For the same molecule, the ED90 [24] was 25 gAi, the Activity [5] was “Toxic” and the mortality at 63 g/ha [7] was greater than 90%. For the same molecule, the Activity [8] was less than 50%, the Activity [9] was “Toxic” and the Activity [25] was “Toxic”. The mortality at 264 h [11] was less than 5%, the ED90 [26] was 25 gAi and the mortality at 264 h [13] was less than 5%. For the same molecule, the Activity [14] was “Toxic”, the ED90 [27] was 25 gAi and the ED90 [28] was “Active”.

With `COc1cc(OC)nc(Oc2cccc([N+](=O)[O-])c2C(=O)O)n1` the mortality at 16 g/ha [29] was less than 5%, the mortality at 16 g/ha [30] was less than 5% and the Activity [1] was “Toxic”. The mortality at 16 g/ha [31] was less than 5%, the “growth inhibition (GI)” value [32] was “Active” and the mortality ([2]; read-out: mortality) was less than 5%. The Activity [3] was “Non-toxic”, the “growth inhibition (GI)” value [33] was “inactive” and the “growth inhibition (GI)” value [34] was “Active”. The “growth inhibition (GI)” value [35] was “Active”, the Activity [4] was “Non-toxic” and the “growth inhibition (GI)” value [36] was “Active”. The Activity [37] was “Toxic”, the mortality at 63 g/ha [38, 55] was less than 5% and the “growth inhibition (GI)” value [39] was “Active”. The Activity [5] was “Non-toxic”, the mortality at 16 g/ha [6, 56] was less than 5% and the mortality [40] was less than 5%. For the same molecule, the mortality at 16 g/ha [41] was less than 5%, the “growth inhibition (GI)” value [42] was “Active” and the Activity [25] was “Non-toxic”. For the same molecule, the Activity [43] was “Non-toxic”, the mortality at 16 g/ha [12, 55] was less than 5% and the mortality at 63 g/ha [44, 56] was less than 5%. The mortality at 63 g/ha [45] was less than 5%, the Activity [46] was “Non-toxic” and the “growth inhibition (GI)” value [47] was “Active”. The “growth inhibition (GI)” value [48] was “Active”, the “growth inhibition (GI)” value [49] was “inactive” and the “growth inhibition (GI)” value [50] was “Active”. The “growth inhibition (GI)” value [51] was “inactive”.

`COc1cc(OC)nc(Sc2cccc(C)c2C(=O)O)n1` gave an ED90 [15] of 50 gAi, an ED90 [16] of 100 gAi and a mortality at 16 g/ha [52] of less than 5%. For the same molecule, the ED90 [17] was “Active”, the ED90 [18] was “Active” and the Activity [1] was “Toxic”. The ED90 [19] was “Active”, the mortality at 16 g/ha [31] was less than 5% and the ED20 [20] was 100 gAi. The mortality ([2]; read-out: Activity) was less than 50%, the Activity [3] was “Toxic” and the ED20 [22] was 100 gAi. For the same molecule, the mortality [53] was less than 50%, the ED90 [23] was “Active” and the Activity [37] was “Toxic”. The Activity [38] was less than 50%, the ED90 [24] was 25 gAi and the Activity [5] was “Non-toxic”. The Activity [6] was less than 50%, the mortality at 63 g/ha [54] was less than 5% and the Activity [8] was less than 50%. The Activity [9] was “Toxic”, the Activity [25] was “Toxic” and the Activity [43] was “Non-toxic”. The Activity [12] was less than 50%, the Activity [44] was less than 50% and the ED90 [26] was 50 gAi. For the same molecule, the Activity [46] was “Non-toxic”, the Activity [14] was “Toxic” and the ED90 [27] was 100 gAi. It also gave an ED90 [28] of 25 gAi.
